Results reported in ChEMBL document CHEMBL4665541, “Search for new therapeutic options for the uncommon pathogen Mycobacterium chimaera: an open drug discovery approach” (Lancet Microbe, 2021).

Legend:
Format in all cases: functional, organism-based
Design in all cases: conc 20 uM
[1] = system: Mycobacterium intracellulare subsp. chimaera; test: (§1) Inhibition of mycobacterial growth using the resazurin microtitre cell viability assay (REMA), compounds at final concentration of 20 µM (2% v/v DMSO). Hits were classed as compounds that inhibited bacterial growth by 70% or more compared to drug-free controls.; conditions: NCTC13781
[2] = system: Mycobacterium tuberculosis; test: as §1; conditions: H37Rv
[3] = system: Mycobacteroides abscessus; test: as §1; conditions: ATCC19977

Substance | Survival [1] | Survival [2] | Survival [3]
MMV688407 | 106% | 94% | 116%
MMV020517 | 94% | 79.9% | 123%
MMV688417 | 106% | 82.3% | 104%
MMV676063 | 112% | 91% | 105%
MMV688958 | 97.7% | 91.1% | 109%
MMV008439 | 99.8% | 106% | 112%
MMV023370 | 107% | 102% | 109%
MMV687749 | 96.9% | 73.3% | 113%
MMV676520 | 85.8% | 43.4% | 100%
MMV611037 | 105% | 92.7% | 106%
MMV084864 | 100% | 84.2% | 101%
MMV1110498 | 102% | 97.9% | 111%
MMV676182 | 104% | 91.4% | 102%
MMV687762 | 101% | 95.8% | 112%
MMV001625 | 101% | 90.5% | 121%
MMV687170 | 89.9% | 52.7% | 114%
MMV006901 | 120% | 86.8% | 102%
MMV688279 | 114% | 32.5% | 110%
MMV020388 | 102% | 88.5% | 113%
MMV062221 | 112% | 103% | 114%
MMV024406 | 100% | 89% | 114%
MMV676358 | 92.3% | 98.4% | 114%

Substance | Survival [1] | Survival [2] | Survival [3]
MMV688853 | 102% | 94.5% | 111%
MMV676412 | 92.8% | 6.6% | 105%
MMV675996 | 94.3% | 102% | 94.2%
MMV026020 | 105% | 102% | 113%
MMV007638 | 113% | 100% | 123%
MMV053220 | 97.9% | 90.6% | 115%
MMV690103 | 110% | 105% | 117%
MMV020165 | 98.7% | 82.1% | 106%
MMV069458 | 94.1% | 11.9% | 102%
MMV688271 | 3.73% | 1.1% | 108%
MMV023388 | 98% | 99.3% | 90.4%
MMV687248 | 110% | 31.8% | 110%
MMV676509 | 89.8% | 85.9% | 113%
MMV688547 | 102% | 95.2% | 116%
MMV676401 | 88% | 95.8% | 113%
MMV495543 | 86.9% | 85.3% | 84.2%
MMV676604 | 104% | 95% | 119%
MMV687138 | 104% | 56.3% | 102%
MMV676191 | 105% | 100% | 99.5%
MMV688514 | 100% | 91.7% | 111%
MMV063404 | 90.4% | 33.5% | 108%
MMV688471 | 98.6% | 87.8% | 109%

Substance | Survival [1] | Survival [2] | Survival [3]
MMV687747 | 90.2% | 63.6% | 108%
MMV688756 | 2.59% | 13.4% | 50%
MMV687807 | 82.9% | 4.61% | 103%
MMV687188 | 73.5% | 43.4% | 110%
MMV688179 | 2.34% | 1.64% | 17.6%
MMV007625 | 104% | 90.4% | 123%
MMV676528 | 102% | 88.7% | 115%
MMV023233 | 90.8% | 89.1% | 106%
MMV690027 | 104% | 101% | 111%
MMV020120 | 104% | 94.3% | 122%
MMV007133 | 95.2% | 98.7% | 95%
MMV675969 | 107% | 95.8% | 93.7%
MMV689244 | 107% | 90.1% | 115%
MMV688762 | 96.2% | 89% | 121%
MMV090930 | 84.6% | 38.6% | 110%
MMV688939 | 95.4% | 48.9% | 97.6%
MMV020291 | 103% | 90.7% | 121%
MMV676384 | 101% | 54.5% | 109%
MMV009135 | 104% | 93.6% | 101%
MMV688775 | 1.46% | 4.71% | 15.1%
MMV032967 | 87.8% | 92.6% | 104%
MMV688796 | 93.4% | 99.3% | 103%

Substance | Survival [1] | Survival [2] | Survival [3]
MMV045105 | 102% | 107% | 113%
MMV676470 | 100% | 90.7% | 115%
MMV676186 | 98.8% | 94.5% | 105%
MMV659010 | 91.7% | 85.6% | 112%
MMV688371 | 107% | 111% | 119%
MMV553002 | 66.4% | 34.8% | 113%
MMV023949 | 90.5% | 92.7% | 116%
MMV020520 | 113% | 104% | 125%
MMV687251 | 88.3% | 5.28% | 116%
MMV687776 | 99.3% | 90.5% | 124%
MMV687796 | 102% | 9.75% | 99%
MMV675997 | 98.5% | 99.4% | 105%
MMV019189 | 97.4% | 77% | 97.2%
MMV688364 | 89.9% | 82.7% | 111%
MMV687729 | 30.5% | 13.1% | 112%
MMV011903 | 108% | 108% | 114%
MMV020591 | 112% | 106% | 113%
MMV031011 | 89.4% | 99.4% | 109%
MMV085499 | 112% | 90.8% | 106%
MMV688888 | 37.8% | 23.3% | 95.5%
MMV688552 | 103% | 81% | 107%
MMV023985 | 109% | 85.1% | 101%

Substance | Survival [1] | Survival [2] | Survival [3]
MMV687800 | 6.51% | 6.34% | 109%
MMV667494 | 95.7% | 84.1% | 110%
MMV676571 | 100% | 59.4% | 115%
MMV676480 | 104% | 106% | 104%
MMV687146 | 4.5% | 77.5% | 17.2%
MMV020391 | 91.8% | 95.4% | 108%
MMV658988 | 74.9% | 4.93% | 101%
MMV688273 | 106% | 97.8% | 100%
MMV407834 | 114% | 97% | 113%
MMV688771 | 91.7% | 91.4% | 98.2%
MMV676409 | 85.7% | 19.2% | 122%
MMV688415 | 97.2% | 88.9% | 101%
MMV024937 | 111% | 88.4% | 103%
MMV676512 | 95.9% | 6.01% | 100%
MMV688469 | 82.8% | 90.9% | 87.3%
MMV188296 | 98% | 95% | 109%
MMV676476 | 100% | 72.8% | 108%
MMV688846 | 112% | 69.2% | 20.9%
MMV687812 | 41% | 26% | 26.9%
MMV019721 | 114% | 104% | 121%
MMV688955 | 94.2% | 103% | 89.9%
